# In patent US10961236B2, “(S)-2-(1-cyclopropylethyl)-5-(4-methyl-2-((6-(2-oxopyrrolidin-1-yl)pyridin-2-yl)amino) thiazol-5-yl)-7-(methylsulfonyl)isoindolin-1-one as a phosphatidylinositol 3-kinase inhibitor” (AstraZeneca AB, priority 2016, dated 2021):
# Legend:
# Assay type in all cases: biochemical
# [1] = biological target: recombinant human PI3Kγ ((aa144-1102)-6His) (Homo sapiens (Human), UniProt P48736); assay: Enzymatic activity assay for recombinant human PI3Kγ (ADP-Glo); conditions: 1.2 nM PI3Kγ, 20 μM ATP, 80 μM DiC8-PIP2, ADP-Glo
# Method: (§1) Enzymatic Activity Assay for Recombinant Human PI3K α, β, δ and γ.
# (§2) The activity of recombinant human PI3Kγ ((aa144-1102)-6His) and PI3Kα, β, δ (6-His(p110-p85α)) was determined by measuring the ADP level after phosphorylation of DiC8-PIP2 using a commercially available ADP-Glo™ kit from Promega. The assay was carried out in white low volume 384 well plates in a final volume of 14 μl at R.T. The assay conditions contained the following: 50 mM Tris buffer pH 7.4, 2.1 mM DTT, 3 mM MgCl2, 0.05% CHAPS, 20 μM ATP, 80 μM DiC8-PIP2 and 1.2 nM PI3Kα, β, γ or 0.6 nM PI3Kδ. […] Routinely, inhibitors were pre-incubated with 3 μl of enzyme for 15 min prior to the addition of 2 μl substrate mixture for a further 60 min enzyme reaction. The phosphorylation was stopped with the addition of 3 μl ADP-Glo™ reagent (stop solution) followed by a 40 min incubation. Prior to detection 6 μl of ADP-Glo™ Kinase Detection Reagent was added and the plates were read in a micro plate reader using a Luminescence filter. All additions were followed by a short centrifugation step.
# [2] = biological target: recombinant human PI3Kβ (6-His(p110-p85α)) (Homo sapiens (Human), UniProt P42338); assay: Enzymatic activity assay for recombinant human PI3Kβ (ADP-Glo); conditions: 1.2 nM PI3Kβ, 20 μM ATP, 80 μM DiC8-PIP2, ADP-Glo
# Method: as §1
# as §2, with “PI3Kδ. Potential inhibitors were made up in DMSO and then diluted in the assay to give a final concentration of not exceeding 1% (v/v) DMSO.” for “PI3Kδ.”
# [3] = biological target: recombinant human PI3Kα (6-His(p110-p85α)) (Homo sapiens (Human), UniProt P42336); assay: Enzymatic activity assay for recombinant human PI3Kα (ADP-Glo); conditions: 1.2 nM PI3Kα, 20 μM ATP, 80 μM DiC8-PIP2, ADP-Glo
# Method: as §1
# as §2, with “PI3Kδ. Potential inhibitors were made up in DMSO and then diluted in the assay to give a final concentration of not exceeding 1% (v/v) DMSO.” for “PI3Kδ.”
# [4] = biological target: recombinant human PI3Kδ (6-His(p110-p85α)) (Homo sapiens (Human), UniProt O00329); assay: Enzymatic activity assay for recombinant human PI3Kδ (ADP-Glo); conditions: 0.6 nM PI3Kδ, 20 μM ATP, 80 μM DiC8-PIP2, ADP-Glo
# Method: as §1, §2
# recombinant human PI3Kγ ((aa144-1102)-6His), sequence (P48736 144-1102): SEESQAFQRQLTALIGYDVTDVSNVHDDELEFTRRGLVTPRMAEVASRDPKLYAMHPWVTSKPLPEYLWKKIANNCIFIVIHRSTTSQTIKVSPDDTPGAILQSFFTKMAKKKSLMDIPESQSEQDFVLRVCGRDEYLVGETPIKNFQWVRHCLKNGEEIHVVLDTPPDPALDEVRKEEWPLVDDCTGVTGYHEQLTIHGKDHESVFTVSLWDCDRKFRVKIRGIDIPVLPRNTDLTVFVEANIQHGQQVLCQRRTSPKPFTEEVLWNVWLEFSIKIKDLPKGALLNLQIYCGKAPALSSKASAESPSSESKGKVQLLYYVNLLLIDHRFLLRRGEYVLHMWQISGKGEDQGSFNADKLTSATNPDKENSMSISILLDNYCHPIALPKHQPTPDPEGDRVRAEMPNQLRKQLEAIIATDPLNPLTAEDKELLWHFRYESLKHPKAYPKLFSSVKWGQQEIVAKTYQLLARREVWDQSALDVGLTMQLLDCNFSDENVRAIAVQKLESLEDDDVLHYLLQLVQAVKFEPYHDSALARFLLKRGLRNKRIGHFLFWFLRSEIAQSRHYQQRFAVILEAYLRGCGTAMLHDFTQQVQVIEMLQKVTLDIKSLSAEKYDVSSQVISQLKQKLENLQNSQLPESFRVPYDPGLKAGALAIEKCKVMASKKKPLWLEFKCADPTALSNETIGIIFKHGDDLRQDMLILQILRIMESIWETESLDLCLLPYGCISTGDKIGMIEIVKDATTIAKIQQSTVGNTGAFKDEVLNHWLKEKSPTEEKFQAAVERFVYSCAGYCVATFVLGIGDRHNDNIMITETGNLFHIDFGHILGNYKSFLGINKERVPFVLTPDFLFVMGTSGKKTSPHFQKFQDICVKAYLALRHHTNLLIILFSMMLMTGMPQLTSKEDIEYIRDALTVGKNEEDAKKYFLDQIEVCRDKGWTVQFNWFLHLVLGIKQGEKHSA
# recombinant human PI3Kβ (6-His(p110-p85α)), sequence (P42338 whole entry): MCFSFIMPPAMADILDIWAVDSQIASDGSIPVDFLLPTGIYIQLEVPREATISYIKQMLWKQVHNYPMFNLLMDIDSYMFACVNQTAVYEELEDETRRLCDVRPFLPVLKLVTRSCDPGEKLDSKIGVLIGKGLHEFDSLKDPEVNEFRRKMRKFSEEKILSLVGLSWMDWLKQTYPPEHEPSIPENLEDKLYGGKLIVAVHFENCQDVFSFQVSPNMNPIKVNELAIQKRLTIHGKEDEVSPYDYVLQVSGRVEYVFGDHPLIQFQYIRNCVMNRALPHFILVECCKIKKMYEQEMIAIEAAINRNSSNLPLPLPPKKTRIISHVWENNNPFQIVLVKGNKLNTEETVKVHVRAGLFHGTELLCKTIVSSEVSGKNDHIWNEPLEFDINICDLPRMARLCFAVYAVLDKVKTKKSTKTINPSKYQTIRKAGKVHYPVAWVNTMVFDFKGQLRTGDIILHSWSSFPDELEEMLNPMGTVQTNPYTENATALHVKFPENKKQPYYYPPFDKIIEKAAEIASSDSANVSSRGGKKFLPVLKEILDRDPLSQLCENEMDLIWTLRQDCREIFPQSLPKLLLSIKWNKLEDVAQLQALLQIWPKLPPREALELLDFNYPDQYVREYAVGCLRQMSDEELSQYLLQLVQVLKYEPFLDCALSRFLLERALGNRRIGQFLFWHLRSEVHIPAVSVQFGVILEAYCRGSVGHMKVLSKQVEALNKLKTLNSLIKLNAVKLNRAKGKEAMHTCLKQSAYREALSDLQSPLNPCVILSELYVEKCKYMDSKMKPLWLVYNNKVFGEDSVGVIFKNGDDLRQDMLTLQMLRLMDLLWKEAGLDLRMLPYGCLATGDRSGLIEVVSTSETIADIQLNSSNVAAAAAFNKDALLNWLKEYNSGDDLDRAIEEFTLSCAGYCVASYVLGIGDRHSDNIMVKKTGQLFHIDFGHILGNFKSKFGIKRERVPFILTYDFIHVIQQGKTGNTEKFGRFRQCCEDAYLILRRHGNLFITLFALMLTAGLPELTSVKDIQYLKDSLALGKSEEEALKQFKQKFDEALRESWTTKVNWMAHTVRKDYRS
# recombinant human PI3Kβ (6-His(p110-p85α)), sequence (P27986 whole entry partner): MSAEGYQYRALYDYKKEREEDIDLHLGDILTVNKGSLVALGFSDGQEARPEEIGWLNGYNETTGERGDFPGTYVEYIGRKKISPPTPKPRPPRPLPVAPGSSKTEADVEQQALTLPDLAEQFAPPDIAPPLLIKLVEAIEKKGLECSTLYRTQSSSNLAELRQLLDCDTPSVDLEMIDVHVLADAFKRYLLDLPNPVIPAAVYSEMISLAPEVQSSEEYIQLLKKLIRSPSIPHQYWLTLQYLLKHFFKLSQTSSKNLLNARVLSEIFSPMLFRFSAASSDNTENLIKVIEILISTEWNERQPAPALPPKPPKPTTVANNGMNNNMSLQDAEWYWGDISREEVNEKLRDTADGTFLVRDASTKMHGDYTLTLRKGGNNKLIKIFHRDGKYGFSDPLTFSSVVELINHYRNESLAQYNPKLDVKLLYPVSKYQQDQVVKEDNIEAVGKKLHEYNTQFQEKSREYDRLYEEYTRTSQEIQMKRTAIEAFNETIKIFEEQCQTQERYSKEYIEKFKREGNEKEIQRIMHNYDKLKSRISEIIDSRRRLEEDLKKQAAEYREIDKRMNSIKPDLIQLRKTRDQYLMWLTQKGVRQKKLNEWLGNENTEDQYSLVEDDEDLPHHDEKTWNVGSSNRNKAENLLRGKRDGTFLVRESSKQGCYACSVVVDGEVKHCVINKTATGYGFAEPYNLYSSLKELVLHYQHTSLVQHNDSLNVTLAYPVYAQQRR
# recombinant human PI3Kδ (6-His(p110-p85α)), sequence (O00329 whole entry): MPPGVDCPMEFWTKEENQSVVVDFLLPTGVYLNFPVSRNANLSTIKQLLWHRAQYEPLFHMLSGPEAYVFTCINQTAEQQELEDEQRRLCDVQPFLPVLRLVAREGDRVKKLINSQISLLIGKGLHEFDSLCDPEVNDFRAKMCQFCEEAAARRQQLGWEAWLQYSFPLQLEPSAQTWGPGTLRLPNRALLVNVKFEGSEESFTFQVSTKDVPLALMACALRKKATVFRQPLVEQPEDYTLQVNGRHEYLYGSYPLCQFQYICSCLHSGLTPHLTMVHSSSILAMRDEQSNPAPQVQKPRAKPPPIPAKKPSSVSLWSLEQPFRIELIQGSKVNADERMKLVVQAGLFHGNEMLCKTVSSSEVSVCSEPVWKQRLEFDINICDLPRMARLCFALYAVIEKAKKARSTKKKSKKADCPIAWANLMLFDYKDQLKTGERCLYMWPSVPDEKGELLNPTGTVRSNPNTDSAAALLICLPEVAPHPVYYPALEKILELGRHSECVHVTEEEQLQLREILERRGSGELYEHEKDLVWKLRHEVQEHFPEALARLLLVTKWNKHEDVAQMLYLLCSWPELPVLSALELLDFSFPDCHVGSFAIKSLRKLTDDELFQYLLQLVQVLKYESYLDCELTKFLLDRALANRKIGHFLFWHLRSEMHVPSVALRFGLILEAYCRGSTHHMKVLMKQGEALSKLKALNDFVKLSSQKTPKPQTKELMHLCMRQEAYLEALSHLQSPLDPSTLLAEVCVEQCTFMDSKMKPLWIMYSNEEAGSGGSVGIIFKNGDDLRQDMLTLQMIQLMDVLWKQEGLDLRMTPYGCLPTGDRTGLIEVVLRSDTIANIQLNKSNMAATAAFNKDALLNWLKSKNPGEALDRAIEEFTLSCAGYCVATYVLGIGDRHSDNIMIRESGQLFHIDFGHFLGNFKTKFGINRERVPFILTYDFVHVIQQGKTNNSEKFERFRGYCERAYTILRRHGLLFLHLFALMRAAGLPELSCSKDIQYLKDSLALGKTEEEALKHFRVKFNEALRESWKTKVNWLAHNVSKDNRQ
# recombinant human PI3Kδ (6-His(p110-p85α)), sequence (P27986 whole entry partner): as the sequence (P27986 whole entry partner) above
# recombinant human PI3Kα (6-His(p110-p85α)), sequence (P42336 whole entry): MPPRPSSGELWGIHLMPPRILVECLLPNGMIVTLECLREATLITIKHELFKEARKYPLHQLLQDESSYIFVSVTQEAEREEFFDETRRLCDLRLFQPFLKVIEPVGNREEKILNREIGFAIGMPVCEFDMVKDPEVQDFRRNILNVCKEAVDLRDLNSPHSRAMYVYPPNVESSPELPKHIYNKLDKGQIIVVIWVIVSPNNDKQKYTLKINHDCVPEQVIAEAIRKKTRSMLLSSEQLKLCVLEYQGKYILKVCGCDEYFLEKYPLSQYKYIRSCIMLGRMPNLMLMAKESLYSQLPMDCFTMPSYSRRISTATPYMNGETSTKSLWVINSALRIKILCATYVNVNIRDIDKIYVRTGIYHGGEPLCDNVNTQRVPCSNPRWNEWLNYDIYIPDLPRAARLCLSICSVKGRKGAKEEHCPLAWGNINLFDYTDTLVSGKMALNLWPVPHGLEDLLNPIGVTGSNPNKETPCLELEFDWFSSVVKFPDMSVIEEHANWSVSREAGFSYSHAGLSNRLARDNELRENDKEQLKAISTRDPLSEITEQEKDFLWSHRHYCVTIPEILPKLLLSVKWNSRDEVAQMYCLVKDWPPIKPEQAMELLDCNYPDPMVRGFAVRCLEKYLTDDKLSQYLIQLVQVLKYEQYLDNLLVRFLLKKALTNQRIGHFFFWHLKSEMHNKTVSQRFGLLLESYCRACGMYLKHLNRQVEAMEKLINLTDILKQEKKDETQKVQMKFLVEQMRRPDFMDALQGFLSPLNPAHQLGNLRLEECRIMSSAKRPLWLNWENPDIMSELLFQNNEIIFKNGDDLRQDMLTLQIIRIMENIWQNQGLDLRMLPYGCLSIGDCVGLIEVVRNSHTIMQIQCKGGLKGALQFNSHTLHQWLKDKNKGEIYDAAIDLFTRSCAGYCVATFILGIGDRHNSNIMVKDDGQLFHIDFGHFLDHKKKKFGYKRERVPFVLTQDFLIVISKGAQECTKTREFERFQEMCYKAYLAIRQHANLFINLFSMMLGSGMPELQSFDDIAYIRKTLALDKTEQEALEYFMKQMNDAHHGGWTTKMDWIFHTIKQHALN
# recombinant human PI3Kα (6-His(p110-p85α)), sequence (P27986 whole entry partner): as the sequence (P27986 whole entry partner) above
Structure (SMILES),IC50 [1] [µM],IC50 [2] [µM],IC50 [3] [µM],IC50 [4] [µM]
"Cc1nc(Nc2cccc(N3CCCC3=O)n2)sc1-c1cc2c(c(S(=O)(=O)NC3COC3)c1)C(=O)N([C@@H](C)C1CC1)C2 [Example 32, 2-[(1S)-1-Cyclopropylethyl]-6-(4-methyl-2-{[6-(2-oxopyrrolidin-1-yl)pyridin-2-yl]amino}-1,3-thiazol-5-yl)-N-(oxetan-3-yl)-3-oxo-2,3-dihydro-1H-isoindole-4-sulfonamide]",0.0013,2.06,0.14,0.0007
"Cc1nc(Nc2cccc(N3CCOC3=O)n2)sc1-c1cc2c(c(S(=O)(=O)NC3COC3)c1)C(=O)N([C@@H](C)C1CC1)C2 [Example 33, 2-[(1S)-1-Cyclopropylethyl]-6-(4-methyl-2-{[6-(2-oxo-1,3-oxazolidin-3-yl)pyridin-2-yl]amino}-1,3-thiazol-5-yl)-N-(oxetan-3-yl)-3-oxo-2,3-dihydro-1H-isoindole-4-sulfonamide]",0.0012,3.42,0.472,0.0014
"Cc1nc(Nc2cccc(N3CCCOC3=O)n2)sc1-c1cc2c(c(S(=O)(=O)NC3COC3)c1)C(=O)N([C@@H](C)C1CC1)C2 [Example 35, 2-[(1S)-1-Cyclopropylethyl]-6-(4-methyl-2-{[6-(2-oxo-1,3-oxazinan-3-yl)pyridin-2-yl]amino}-1,3-thiazol-5-yl)-N-(oxetan-3-yl)-3-oxo-2,3-dihydro-1H-isoindole-4-sulfonamide]",0.001,0.484,0.053,0.0009
"CNS(=O)(=O)c1cc(-c2sc(Nc3cccc(N4CCCOC4=O)n3)nc2C)cc2c1C(=O)N(C(C)(C)C)C2 [Example 38, 2-tert-Butyl-N-methyl-6-(4-methyl-2-{[6-(2-oxo-1,3-oxazinan-3-yl)pyridin-2-yl]amino}-1,3-thiazol-5-yl)-3-oxo-2,3-dihydro-1H-isoindole-4-sulfonamide]",0.0008,0.065,0.084,0.0018
"Cc1nc(Nc2cccc(N3CCNCC3=O)n2)sc1-c1cc2c(c(S(C)(=O)=O)c1)C(=O)N([C@@H](C)C1CC1)C2 [Example 40, 2-[(1S)-1-Cyclopropylethyl]-5-(4-methyl-2-{[6-(2-oxopiperazin-1-yl)pyridin-2-yl]amino}-1,3-thiazol-5-yl)-7-(methylsulfonyl)-2,3-dihydro-1H-isoindol-1-one]",0.0016,0.729,0.104,0.0017
"CNS(=O)(=O)c1cc(-c2sc(Nc3cccc(N4CCNCC4=O)n3)nc2C)cc2c1C(=O)N([C@@H](C)C1CC1)C2 [Example 41, 2-[(1S)-1-Cyclopropylethyl]-N-methyl-6-(4-methyl-2-{[6-(2-oxopiperazin-1-yl)pyridin-2-yl]amino}-1,3-thiazol-5-yl)-3-oxo-2,3-dihydro-1H-isoindole-4-sulfonamide]",0.0013,0.298,0.072,0.0009
"CNS(=O)(=O)c1cc(-c2sc(Nc3cccc(N4C[C@H](C)NCC4=O)n3)nc2C)cc2c1C(=O)N([C@@H](C)C1CC1)C2 [Example 42, 2-[(1S)-1-Cyclopropylethyl]-N-methyl-6-[4-methyl-2-({6-[(5S)-5-methyl-2-oxopiperazin-1-yl]pyridin-2-yl}amino)-1,3-thiazol-5-yl]-3-oxo-2,3-dihydro-1H-isoindole-4-sulfonamide]",0.001,0.286,0.069,0.0008
"CNS(=O)(=O)c1cc(-c2sc(Nc3cccc(N4C[C@@H](C)NCC4=O)n3)nc2C)cc2c1C(=O)N([C@@H](C)C1CC1)C2 [Example 45, 2-[(1S)-1-Cyclopropylethyl]-N-methyl-6-[4-methyl-2-({6-[(5R)-5-methyl-2-oxopiperazin-1-yl]pyridin-2-yl}amino)-1,3-thiazol-5-yl]-3-oxo-2,3-dihydro-1H-isoindole-4-sulfonamide]",0.0008,0.257,0.033,0.001

# The next lines start with the values.
IC50 [1] [µM],IC50 [2] [µM],IC50 [3] [µM],IC50 [4] [µM],Structure (SMILES)
0.0014,0.722,0.074,0.0005,"Cc1nc(Nc2cccc(N3CCNC3=O)n2)sc1-c1cc2c(c(S(=O)(=O)NC(C)C)c1)C(=O)N([C@@H](C)C(F)(F)F)C2 [Example 30, 6-(4-Methyl-2-{[6-(2-oxoimidazolidin-1-yl)pyridin-2-yl]amino}-1,3-thiazol-5-yl)-3-oxo-N-(propan-2-yl)-2-[(2S)-1,1,1-trifluoropropan-2-yl]-2,3-dihydro-1H-isoindole-4-sulfonamide]"
0.0008,0.927,0.03,0.0005,"Cc1nc(Nc2cccc(N3CCNC3=O)n2)sc1-c1cc2c(c(S(=O)(=O)NC3COC3)c1)C(=O)N([C@@H](C)C1CC1)C2 [Example 34, 2-[(1S)-1-Cyclopropylethyl]-6-(4-methyl-2-{[6-(2-oxoimidazolidin-1-yl)pyridin-2-yl]amino}-1,3-thiazol-5-yl)-N-(oxetan-3-yl)-3-oxo-2,3-dihydro-1H-isoindole-4-sulfonamide]"
0.0012,0.113,0.05,0.001,"Cc1nc(Nc2cccc(N3CCCCC3=O)n2)sc1-c1cc2c(c(S(=O)(=O)NC3COC3)c1)C(=O)N([C@@H](C)C(F)(F)F)C2 [Example 36, 6-(4-Methyl-2-{[6-(2-oxopiperidin-1-yl)pyridin-2-yl]amino}-1,3-thiazol-5-yl)-N-(oxetan-3-yl)-3-oxo-2-[(2S)-1,1,1-trifluoropropan-2-yl]-2,3-dihydro-1H-isoindole-4-sulfonamide]"
0.0011,0.395,0.067,0.0006,"Cc1nc(Nc2cccc(N3CCCC3=O)n2)sc1-c1cc2c(c(S(=O)(=O)NC3COC3)c1)C(=O)N([C@@H](C)C(F)(F)F)C2 [Example 37, 6-(4-Methyl-2-{[6-(2-oxopyrrolidin-1-yl)pyridin-2-yl]amino}-1,3-thiazol-5-yl)-N-(oxetan-3-yl)-3-oxo-2-[(2S)-1,1,1-trifluoropropan-2-yl]-2,3-dihydro-1H-isoindole-4-sulfonamide]"
0.0014,10.4,0.485,0.0089,"CNS(=O)(=O)c1cc(-c2sc(Nc3cccc(N4CCOCC4=O)n3)nc2C)cc2c1C(=O)N([C@@H](C)C(C)(C)C)C2 [Example 39, 2-[(2S)-3,3-Dimethylbutan-2-yl]-N-methyl-6-(4-methyl-2-{[6-(3-oxomorpholin-4-yl)pyridin-2-yl]amino}-1,3-thiazol-5-yl)-3-oxo-2,3-dihydro-1H-isoindole-4-sulfonamide]"
0.001,0.284,0.04,0.001,"CNS(=O)(=O)c1cc(-c2sc(Nc3cccc(N4CCN[C@H](C)C4=O)n3)nc2C)cc2c1C(=O)N([C@@H](C)C1CC1)C2 [Example 43, 2-[(1S)-1-Cyclopropylethyl]-N-methyl-6-[4-methyl-2-({6-[(3R)-3-methyl-2-oxopiperazin-1-yl]pyridin-2-yl}amino)-1,3-thiazol-5-yl]-3-oxo-2,3-dihydro-1H-isoindole-4-sulfonamide]"
0.0012,0.518,0.072,0.0015,"CNS(=O)(=O)c1cc(-c2sc(Nc3cccc(N4CCN[C@@H](C)C4=O)n3)nc2C)cc2c1C(=O)N([C@@H](C)C1CC1)C2 [Example 44, 2-[(1S)-1-Cyclopropylethyl]-N-methyl-6-[4-methyl-2-({6-[(3S)-3-methyl-2-oxopiperazin-1-yl]pyridin-2-yl}amino)-1,3-thiazol-5-yl]-3-oxo-2,3-dihydro-1H-isoindole-4-sulfonamide]"
